Experimental data: US9127085B2, “Compositions of humanized notch fusion proteins and methods of treatment” (THE TRUSTEES OF COLUMBIA UNIVERSITY IN THE CITY OF NEW YORK, priority 2007, dated 2015)
“Also recorded” adds a separate entry of the source.

Key:
[1] = system: Ad-Notch4 transduced HUVEC; experiment: Endothelial co-culture morphogenesis assay (Notch4-induced extensions on fibrin gel); assay type: cell-based, human; conditions: 200 nM compound E vs vehicle
Protocol: HUVEC morphogenesis was assessed as described (11), modified by adding co-culturing of Ad-Notch4 transduced HUVEC with Notch1 decoy- or Fc-HUVEC transfectants. Ad-GFP at 10 m.o.i. was co-transduced in HUVECs with Ad-LacZ or Ad-Notch4 at 30 m.o.i and 48 h later seeded on fibrin gels (24-well plates, 1.5×10^4 cells/well). Stable HUVEC-mock (HUVEC-X), HUVEC-Fc, or HUVEC-N1ECDFc transfectants were seeded at 1.35×10^5 cells/well, and vehicle or 200 nM compound E added 3 h later. Seven days later, HUVEC morphogenesis was calculated as the number of GFP-positive cells with processes compared to total GFP-positive cells/field.

C2C12 cells = experiment: C2C12 myoblast differentiation; assay type: cell-based; conditions: C2C12 transduced with Foxo1-ADA
Protocol: FIGS. 38A-38C These Figures show the quantitative analysis of C2C12 differentiation. […] Results from differentiation experiments were analyzed by scoring the number of Myosin-immunostained cells as percentage of all DAPI-positive cells. […] We carried out reporter gene assays using the canonical Foxo1-responsive Igfbp1 promoter (left panel) and the Hes1 promoter (right panel) in cells co-transfected with Foxo1-ADA or DBD-Foxo1ADA. […] An asterisk indicates P<0.01 by ANOVA.
C2C12 cells were differentiated as described (3, 4). Foxo1-ADA, Notch1-IC, Jagged1, Csl and Notch decoy adenoviral and mammalian expression vectors have been described (36, 51). We generated retroviruses expressing Foxo1-ADA and Notch1-IC using the pQCXIH vector. To generate Notch decoy (pAdlox Notch1ECD-Fc), the extracellular domain of Notch1(bp 241-4229, GenBank accession# X57405) was fused in frame with human IgG Fc tag and cloned into pAdlox. Retroviral supernatant was produced from cells transiently co-transfected with pVSV-G vector and designated pQCXIH vector into GP2-293 cells (BD Bioscience). To generate the DNA binding-deficient Foxo1, we replaced N208 and H212 with alanine and arginine, respectively, using QuikChange Mutagenesis Kit (Stratagene). The mutations were then cloned in the backbone of the Foxo1-ADA mutant. […]

Ad-N1IC-transduced HUVEC = experiment: Notch (Ad-N1IC)-induced HUVEC budding; assay type: cell-based, human
Protocol: HUVEC were transduced with either Ad-LacZ or Ad-N1IC at 40 MOI. FIGS. 23A-23C show the effect of inhibitors for receptor tyrosine kinases on Notch-induced HUVEC budding. FIG. 23A is a photograph of budding of Ad-N1IC-transduced HUVEC treated with PD166866, ZD1893 at 1 μM and SU5416 at 0.5 μM. […] FIGS. 23D-E show induction of Flt-1 expression in Ad-N1IC-transduced HUVEC. […] FIGS. 23F-G show promotion of Notch-induced HUVEC budding with PlGF stimulation. Ad-N1IC-transduced HUVEC were cultured on collagen gel with SFM, instead of complete medium, in the absence or presence of 50 ng/ml PlGF. […] FIGS. 23H-I show the effect of Flt-1 siRNA transfection on Flt1 expression. Ad-N1IC-transduced HUVEC were transfected with 200 pmol of either control (CT) or Flt-1 siRNA. […] Ad-N1IC-transduced HUVEC were transfected with either 100 or 200 pmol of siRNA and cultured on collagen gel for 2 days.
Either Ad-LacZ or Ad-N1IC-HUVEC at a MOI of 40 pfu/cell were cultured on collagen gel for 5 days in the absence or presence of GM6001 at 50 μm.
For making collagen gels, an ice-cold solution of porcine type I collagen (Nitta gelatin, Tokyo, Japan) was mixed with 10×RPMI1640 medium and neutralization buffer at the ratio of 8:1:1. 400 μl aliquots of collagen gel were then added to 24-well plates and allowed to gel for at least 1 hour at 37° C. Following adenoviral infection (above), HUVEC was harvested and plated at 1.3×10^5 cells per well onto the top of the collagen gel in 24-well plates in 0.8 ml of EGM2 medium. HUVEC became nearly confluent 48 hours after plating. After seeding, medium was changed every 2 days for 1 week. Sprouting was observed and photographs taken after 8 days with an Olympus digital camera mounted to a microscope. For quantification of the number of sprouts, 5 fields per each well were randomly selected and sprouting was counted under microscopy in a blind manner by two investigators.

[2] = system: Jagged1 and Dll1 expression in Mm5MT-FGF4 cells; experiment: Quantitative RT-PCR of Notch ligands in Mm5MT-FGF4 transfectants; assay type: cell-based, mouse; conditions: 1 μm PD166866, 7 days
Protocol: Mm5MT transfectants were cultured 7 days with vehicle or 1 μm PD166866 (inhibitor of FGF receptor-kinase), total RNA isolated (RNeasy mini-kit, Qiagen, Valencia, Calif.), and first-strand cDNA synthesized (SuperScript™ First-Strand Synthesis System, Invitrogen). Quantitative RT-PCR for β-actin, FGF4, Jagged1, Dll1, and Dll4 (SYBER Green PCR Master Mix, 7300 Real Time PCR; Applied Biosystems, Foster City, Calif.) was performed in triplicate and values normalized for β-actin. Values are shown for fold induction compared to controls (primer sequences available on request).

[3] = system: retinal neovascularization; conditions: intravitreal injection; hypoxic mouse model; cited from earlier work
[4] = system: CBF1 promoter activity in Ad-VEGF-infected HUVEC; experiment: VEGF-induced Notch signaling, CBF1 (CSL) promoter reporter in HUVEC; assay type: cell-based, human; conditions: SU5416 treatment of Ad-VEGF-transduced HUVEC
Protocol: To determine VEGF-induced Notch signaling, HUVEC which were infected with adenovirus were used. HUVEC plated 1-day prior in 6 well plates at 8.0×10^5 were infected with either Ad-LacZ as control or Ad-VEGF at indicated m.o.i. in the presence or absence of Ad-N1ECD/Fc. Two days after infection, infected HUVEC were re-seeded into 24-well plate at 1.5×10^5 cell in triplicate and cultured for 24 hours, and then transfected with 12.5 ng pRL-SV40 (Promega) and 137.5 ng pGA981-6 using Effectene transfection reagent (Qiagen). Cells were harvested either 1 or 2 days post-transfection and luciferase activity was determined by using the Dual-Luciferase® Reporter Assay System (Promega).
One can measure Notch signaling function by measuring transcriptional activity of CBF1 promoter, which is activated by binding of Notch-IC to CBF1. We measured CBF1 promoter activity in HUVEC which was infected with adenovirus encoding VEGF-165 at different MOI (FIG. 6). Induction of CBF1 promoter was clearly detected in Ad-VEGF-infected HUVEC, compared to Ad-LacZ-infected cells in the MOI dependent manner. […] Thus VEGF induced Notch signaling activity.

[5] = system: VEGF induced retinal microvascular permeability and vasoconstriction; conditions: subcutaneous injection; diabetic rat model; cited from earlier work
[6] = Ad-N1IC at 40 MOI, receptor tyrosine kinase inhibitors at 1 μM

With `C[C@H](NC(=O)Cc1cc(F)cc(F)c1)C(=O)N[C@H]1N=C(c2ccccc2)c2ccccc2N(C)C1=O` [Compound E] the “Notch4-induced HUVEC extensions” value ([1]; p<0.0001) was “clearly inhibited extensions”, the “Notch4-induced HUVEC extensions” value ([1]; p<0.0001, listed as compound E) was “blocks Notch4-induced extensions” and the “rescue of Foxo1-ADA inhibition of myoblast differentiation” value (C2C12 cells) was “also rescued Foxo1-ADA inhibition of myoblast differentiation”.

In the case of `CNC(=O)[C@H](Cc1c[nH]c2ccccc12)NC(=O)[C@@H](CC(=O)NO)CC(C)C` [GM6001], the “budding of Ad-N1IC-HUVEC” value (Ad-N1IC-transduced HUVEC; GM6001 at 50 μm, 5 days, collagen and fibrin gel) is reported as “clearly decreased budding of Ad-N1IC-HUVEC”.

For `COc1cc(OC)cc(-c2cc3cnc(N)nc3nc2NC(=O)NC(C)(C)C)c1` [PD166866], the “budding of Ad-N1IC-HUVEC” value (Ad-N1IC-transduced HUVEC; [6]) was “Neither PD166866 or ZD1893 affected budding” and the “FGF4-induced Jagged1 and Dll1 expression” value [2] was “suppressed induction of both Jagged1 and Dll1; also recorded: reduction of Notch ligand expression”.

For `Clc1ccc(Nc2nnc(Cc3ccncc3)c3ccccc23)cc1` [PTK/ZK], the retinal neovascularization [3] is listed as “reduces retinal neovascularization”.

For `Cc1cc(C)c(/C=C2\C(=O)Nc3ccccc32)[nH]1` [SU5416], the “VEGF-induced CSL-luciferase reporter activity” value [4] was “decreased VEGF-induced CSL-luciferase reporter activity”, the “budding of Ad-N1IC-HUVEC” value (Ad-N1IC-transduced HUVEC; [6]) was “clearly inhibited” and the “viability of Ad-N1IC-HUVEC (dose-dependency of SU5416)” value (Ad-N1IC-transduced HUVEC; lower concentrations of SU5416) was “less reduction of viability at lower concentrations”. For the same molecule, the “VEGF induced retinal microvascular permeability and vasoconstriction” value [5] was “suppresses VEGF induced retinal microvascular permeability and vasoconstriction”.

B1: PlGF: a selective ligand for Flt1 (protein, UniProt P49763 19-221, looked up)
Placenta growth factor: LPAVPPQQWALSAGNGSSEVEVVPFQEVWGRSYCRALERLVDVVSEYPSEVEHMFSPSCVSLLRCTGCCGDENLHCVPVETANVTMQLLKIRSGDRPSYVELTFSQHVRCECRHSPGRQSPDMPGDFRADAPSFLPPRRSLPMLFRMEWGCALTGSQSAVWPSSPVPEEIPRMHPGRNGKKQQRKPLREKMKPERCGDAVPRR
In the case of B1, the “increase in HUVEC buds containing multiple filopodia” value (Ad-N1IC-transduced HUVEC; 50 ng/ml PlGF, SFM) is reported as 250% and the “increase in number of Ad-N1IC-HUVEC buds” value (Ad-N1IC-transduced HUVEC; 50 ng/ml PlGF, SFM, compared to the absence of PlGF) is reported as 150%.
